Molecules are shown by their SMILES.

The nature of assay [1]: Activity determined by 1,1-diphenyl-2-picrylhydrazyl (DPPH) free radical antioxidant assay. It counts as functional. A general note: Loss of DPPH colour is used to gauge radical scavenging.
A short description of assay [2]: Activity determined by cytochrome c reduction antioxidant assay. Format: functional.
Assay [3] deals with T1, Prostaglandin G/H synthase 2 (Homo sapiens, UniProt P35354).
T1 sequence (P35354 whole entry): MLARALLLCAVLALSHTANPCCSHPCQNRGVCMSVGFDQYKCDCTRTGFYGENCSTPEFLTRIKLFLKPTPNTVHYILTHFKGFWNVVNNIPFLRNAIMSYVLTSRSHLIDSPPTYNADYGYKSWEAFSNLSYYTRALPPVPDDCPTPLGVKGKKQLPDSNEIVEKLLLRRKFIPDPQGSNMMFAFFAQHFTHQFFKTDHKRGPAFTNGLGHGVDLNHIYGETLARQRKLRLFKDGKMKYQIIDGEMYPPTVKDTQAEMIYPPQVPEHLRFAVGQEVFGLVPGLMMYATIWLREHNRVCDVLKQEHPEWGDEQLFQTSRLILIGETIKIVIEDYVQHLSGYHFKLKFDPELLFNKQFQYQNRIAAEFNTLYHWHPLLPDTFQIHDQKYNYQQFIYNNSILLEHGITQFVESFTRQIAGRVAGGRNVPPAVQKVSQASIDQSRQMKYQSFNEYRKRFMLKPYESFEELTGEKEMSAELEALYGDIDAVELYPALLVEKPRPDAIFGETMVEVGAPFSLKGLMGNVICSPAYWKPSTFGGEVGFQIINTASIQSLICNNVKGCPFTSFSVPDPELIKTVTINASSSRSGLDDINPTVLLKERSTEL
The assay can be described thus: Inhibitory concentration against Prostaglandin G/H synthase 2.

In assay [4] the target is T2, Prostaglandin G/H synthase 1 (Homo sapiens, UniProt P23219). The assay can be described thus: Inhibitory concentration against Prostaglandin G/H synthase 1.
In assay [5] the target is T2, Prostaglandin G/H synthase 1. The assay can be described thus: Activity against Prostaglandin G/H synthase 1 at > 70 ug/mL; inactive.
Assay [6] has as its target T1, Prostaglandin G/H synthase 2. The assay can be described thus: Activity against Prostaglandin G/H synthase 2 at > 70 ug/mL; inactive.

T2 sequence (P23219 whole entry): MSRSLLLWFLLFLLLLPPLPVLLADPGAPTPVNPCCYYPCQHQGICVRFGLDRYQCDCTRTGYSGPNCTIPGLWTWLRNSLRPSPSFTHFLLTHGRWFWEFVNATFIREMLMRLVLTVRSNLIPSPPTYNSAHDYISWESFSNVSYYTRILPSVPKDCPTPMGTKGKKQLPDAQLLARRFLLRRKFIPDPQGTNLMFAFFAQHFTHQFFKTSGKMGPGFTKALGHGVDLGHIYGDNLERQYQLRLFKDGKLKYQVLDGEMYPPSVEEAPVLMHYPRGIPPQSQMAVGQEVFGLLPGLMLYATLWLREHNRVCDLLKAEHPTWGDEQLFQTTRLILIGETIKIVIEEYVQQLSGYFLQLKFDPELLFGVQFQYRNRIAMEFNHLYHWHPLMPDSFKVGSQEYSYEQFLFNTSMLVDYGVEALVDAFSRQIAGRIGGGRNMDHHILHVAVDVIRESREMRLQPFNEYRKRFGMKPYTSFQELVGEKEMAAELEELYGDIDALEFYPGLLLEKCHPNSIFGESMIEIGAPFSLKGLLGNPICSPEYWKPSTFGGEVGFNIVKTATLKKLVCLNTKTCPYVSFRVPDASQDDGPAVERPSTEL

The IC50 is the midpoint of a concentration-inhibition curve. Lower therefore signals higher potency. For `COC(=O)C[C@H](c1ccc(O)c(O)c1)c1c(O)cc(O)c2c1O[C@H](c1ccc(O)c(O)c1)[C@H](O)C2`, the figures for the half-inhibitory concentration (IC50) in assay [1] and in assay [2] were 29.1 µM and 16.3 µM, respectively.
In the case of `C=C[C@@H]1[C@@H](O)C[C@@H]2[C@]3(CC[C@]4(C)[C@@H]([C@H](C)CCC=C(C)C)CC[C@@]24C)C[C@]13CCC(=O)O`, the IC50 is 4.7 µM in assay [3] and 43.7 µM in assay [4].
With `C[C@H](CC[C@H](O)C(C)(C)O)[C@H]1CC[C@@]2(C)[C@@H]3CCC4[C@@]5(CC[C@H](O)[C@@]4(C)C(=O)O)C[C@@]35CC[C@]12C` (stereo partly specified), the concentration for half-maximal inhibition (IC50) result in assay [5] and in assay [6] was “Not Active” each time.
